Assay results: US5487990A (The General Hospital Corporation, priority 1992, dated 1996)
Where “and” joins values, the source holds several entries; their conditions need not be identical. Equal entries are not always repeated. Entries after “also recorded” stand apart in the source; their conditions may differ. Where two headings read alike, the source gives them in different places. Blank lines part the entries; values can stand above or below the compound they belong to.

Key:
[1] = target: T1, Acetyl-CoA Hydrolase from S. cerevisiae (Saccharomyces cerevisiae, UniProt P32316); experiment: biochemical; format: biochemical; settings: for remaining activity at 10000 µM / remaining activity at 500 µM / remaining activity at 5000 µM / remaining activity at 1000 µM: read-out: Enzyme Activity (%)
T1 sequence (P32316 1-526): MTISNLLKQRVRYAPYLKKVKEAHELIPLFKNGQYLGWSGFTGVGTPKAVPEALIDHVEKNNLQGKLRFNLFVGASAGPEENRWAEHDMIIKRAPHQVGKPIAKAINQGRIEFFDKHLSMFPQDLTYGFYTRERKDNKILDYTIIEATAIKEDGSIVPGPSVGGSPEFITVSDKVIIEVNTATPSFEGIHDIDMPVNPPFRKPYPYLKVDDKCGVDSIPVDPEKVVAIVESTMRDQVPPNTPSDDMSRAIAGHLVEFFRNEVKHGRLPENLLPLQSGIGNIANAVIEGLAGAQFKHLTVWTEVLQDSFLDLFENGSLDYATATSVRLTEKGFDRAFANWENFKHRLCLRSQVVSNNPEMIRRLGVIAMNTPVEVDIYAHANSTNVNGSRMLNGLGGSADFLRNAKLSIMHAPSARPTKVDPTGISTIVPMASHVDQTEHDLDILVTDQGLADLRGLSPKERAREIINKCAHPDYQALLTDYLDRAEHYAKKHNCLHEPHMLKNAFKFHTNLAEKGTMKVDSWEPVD

[2] = tested on: mitochondrial acetyl-CoA hydrolase; settings: cited from earlier work
[3] = target: T1, Acetyl-CoA Hydrolase from S. cerevisiae; experiment: biochemical; settings: for remaining activity at 100 µM / remaining activity at 1000 µM / remaining activity at 10000 µM / remaining activity at 5000 µM: pH 7.4, read-out: Enzyme Activity (%); for Enzyme Activity (%): 100 mM potassium phosphate, pH 7.4, None = 100
[4] = target: T2, soluble cytosolic acetyl-CoA hydrolase found in rat liver (Rattus norvegicus, UniProt Q99NB7); settings: rat liver cytoplasmic, cold-labile enzyme; cited from earlier work
T2 construct: host or cells: rat liver cytoplasm (Prass et al. 1980; Soling et al. 1985)
T2 sequence (Q99NB7 whole entry): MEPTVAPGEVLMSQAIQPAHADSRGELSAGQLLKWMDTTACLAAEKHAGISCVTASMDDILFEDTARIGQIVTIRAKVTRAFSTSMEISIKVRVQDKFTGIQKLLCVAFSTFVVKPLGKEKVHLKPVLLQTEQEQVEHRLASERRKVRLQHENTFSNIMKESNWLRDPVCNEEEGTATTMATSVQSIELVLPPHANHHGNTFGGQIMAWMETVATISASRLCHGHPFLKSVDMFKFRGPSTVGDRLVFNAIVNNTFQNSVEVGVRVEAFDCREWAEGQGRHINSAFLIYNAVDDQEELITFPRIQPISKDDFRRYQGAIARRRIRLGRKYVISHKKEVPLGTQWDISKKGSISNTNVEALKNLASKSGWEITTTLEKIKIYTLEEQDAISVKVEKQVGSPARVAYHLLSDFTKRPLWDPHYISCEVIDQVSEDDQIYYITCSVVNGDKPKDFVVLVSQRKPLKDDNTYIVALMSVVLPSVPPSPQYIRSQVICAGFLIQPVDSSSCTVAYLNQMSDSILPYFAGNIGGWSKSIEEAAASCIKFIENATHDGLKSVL

[5] = target: T1, Acetyl-CoA Hydrolase from S. cerevisiae; experiment: Substrate specificity, colorimetric assay (DNTB, A412); format: biochemical; settings: read-out: Relative Activity (%)
[6] = target: Human ACTH (1-24) (human) (UniProt P01189)

Compound: O[C@@H](CS)[C@@H](O)CS (relative stereo) [DTT]
- inactivation by chemical modification (in words) [1]: did not affect enzyme activity
- remaining activity at 10000 µM ([1]; 0.25 h): 104%

Compound: OCCS [2-mercaptoethanol]
- inactivation by chemical modification (in words) [1]: did not affect enzyme activity
- remaining activity at 10000 µM ([1]; 0.25 h): 101%

Compound: Nc1ncnc2c1ncn2[C@@H]1O[C@H](COP(=O)(O)OP(=O)(O)O)[C@@H](O)[C@H]1O [ADP]
- effect on enzyme (in words) [2]: not inhibited; also recorded: not affected
- effect on yeast enzyme activity (in words) [3]: not affected
- remaining activity at 100 µM [3]: 98%
- remaining activity at 1000 µM [3]: 94%
- remaining activity at 10000 µM [3]: 91%
- effect on enzyme (in words) [4]: inhibited

Compound: Nc1ncnc2c1ncn2[C@@H]1O[C@H](COP(=O)(O)O)[C@@H](O)[C@H]1O [AMP]
- remaining activity at 100 µM [3]: 96%
- remaining activity at 1000 µM [3]: 89%
- remaining activity at 10000 µM [3]: 81%

Compound: Nc1ncnc2c1ncn2[C@@H]1O[C@H](COP(=O)(O)OP(=O)(O)OP(=O)(O)O)[C@@H](O)[C@H]1O [ATP]
- effect on enzyme (in words) [2]: not activated; also recorded: not affected
- effect on yeast enzyme activity (in words) [3]: not affected
- remaining activity at 100 µM [3]: 101%
- remaining activity at 1000 µM [3]: 99%
- remaining activity at 10000 µM [3]: 96%

Compound: CC(=O)CC(=O)SCCNC(=O)CCNC(=O)[C@H](O)C(C)(C)COP(=O)(O)OP(=O)(O)OC[C@H]1O[C@@H](n2cnc3c(N)ncnc32)[C@H](O)[C@@H]1OP(=O)(O)O [Acetoacetyl-CoA]
- activity at 250 µM [5]: 5%
- remaining activity at 100 µM [3]: 98%
- remaining activity at 1000 µM [3]: 92%
- remaining activity at 5000 µM [3]: 90%

Compound: CCCC(=O)SCCNC(=O)CCNC(=O)[C@H](O)C(C)(C)COP(=O)(O)OP(=O)(O)OC[C@H]1O[C@@H](n2cnc3c(N)ncnc32)[C@H](O)[C@@H]1OP(=O)(O)O [Butyryl-CoA]
- activity at 250 µM [5]: 4%
- remaining activity at 100 µM [3]: 95%
- remaining activity at 1000 µM [3]: 86%
- remaining activity at 5000 µM [3]: 62%

Compound: [Ca+2].[Cl-].[Cl-] [CaCl2]
- Enzyme Activity (%) ([3]; addition 1 mM): 97%
- Enzyme Activity (%) ([3]; addition 10 mM): 84%

Compound: [Cl][Cd][Cl] [CdCl2]
- Enzyme Activity (%) ([3]; addition 1 mM): 91%
- Enzyme Activity (%) ([3]; addition 10 mM): 48%

Compound: CC(C)(COP(=O)(O)OP(=O)(O)OC[C@H]1O[C@@H](n2cnc3c(N)ncnc32)[C@H](O)[C@@H]1OP(=O)(O)O)[C@@H](O)C(=O)NCCC(=O)NCCS [CoASH, coenzyme A]
- effect on enzyme (in words) [2]: only weakly inhibited; also recorded: weak inhibitor
- effect on yeast enzyme activity (in words) [3]: only weakly inhibited
- inhibition at 25 µM ([3]; read-out: inhibition of hydrolysis of [1-14C] acetyl-CoA): < 30%
- effect on enzyme (in words) [4]: inhibited; also recorded: strong product inhibitor

Compound: [Cl-].[Cl-].[Co+2] [CoCl2]
- Enzyme Activity (%) ([3]; addition 1 mM): 86%
- Enzyme Activity (%) ([3]; addition 10 mM): 51%

Compound: O=S(=O)([O-])[O-].[Cu+2] [CuSO4]
- Enzyme Activity (%) ([3]; addition 1 mM): 94%
- Enzyme Activity (%) ([3]; addition 10 mM): 89%

Compound: CCOC(=O)OC(=O)OCC [DEPC, diethyl pyrocarbonate]
- inactivation by chemical modification (in words) [1]: nearly complete inactivation; also recorded: inactivated
- remaining activity at 500 µM ([1]; 0.25 h): 19%
- remaining activity at 5000 µM ([1]; 0.25 h): 3%

Compound: O=S(=O)([O-])[O-].[Fe+2] [FeSO4]
- Enzyme Activity (%) ([3]; addition 1 mM): 98%
- Enzyme Activity (%) ([3]; addition 10 mM): 88%

Compound: Nc1nc2c(ncn2[C@@H]2O[C@H](COP(=O)(O)OP(=O)(O)O)[C@@H](O)[C@H]2O)c(=O)[nH]1 [GDP]
- effect on enzyme (in words) [2]: not inhibited
- effect on enzyme (in words) [4]: inhibited

Compound: C[S+](C)Cc1cc([N+](=O)[O-])ccc1O.[Br-] [HNBS(CH3)2 --Br, dimethyl-(2-hydroxy-5-nitrobenzyl)sulfonium bromide]
- inactivation by chemical modification (in words) [1]: partially inactivated
- remaining activity at 1000 µM ([1]; 0.25 h): 84%
- remaining activity at 10000 µM ([1]; 0.25 h): 71%

Compound: O=C(O)CI [IAA, iodoacetic acid]
- remaining activity at 1000 µM ([1]; 0.25 h): 99%
- remaining activity at 10000 µM ([1]; 0.25 h): 89%

Compound: NC(=O)CI [IAM, iodoacetamide]
- effect on enzyme activity (in words) [1]: no effect; also recorded: partially inactivated
- remaining activity at 1000 µM ([1]; 0.25 h): 97%
- remaining activity at 10000 µM ([1]; 0.25 h): 85%

Compound: CC(C)(COP(=O)(O)OP(=O)(O)OC[C@H]1O[C@@H](n2cnc3c(N)ncnc32)[C@H](O)[C@@H]1OP(=O)(O)O)[C@@H](O)C(=O)NCCC(=O)NCCSC(=O)CC(=O)O [Malonyl-CoA]
- activity at 250 µM [5]: 1%
- remaining activity at 100 µM [3]: 93%
- remaining activity at 1000 µM [3]: 83%
- remaining activity at 5000 µM [3]: 52%

Compound: [Cl-].[Cl-].[Mg+2] [MgCl2]
- Enzyme Activity (%) ([3]; addition 1 mM): 95%
- Enzyme Activity (%) ([3]; addition 10 mM): 72%

Compound: O=S(=O)([O-])[O-].[Mg+2] [MgSO4]
- Enzyme Activity (%) ([3]; addition 1 mM): 98%
- Enzyme Activity (%) ([3]; addition 10 mM): 75%

Compound: [Cl][Mn][Cl] [MnCl2]
- Enzyme Activity (%) ([3]; addition 1 mM): 84%
- Enzyme Activity (%) ([3]; addition 10 mM): 64%

Compound: CCCCCCCCCCCCCC(=O)SCCNC(=O)CCNC(=O)[C@H](O)C(C)(C)COP(=O)(O)OP(=O)(O)OC[C@H]1O[C@@H](n2cnc3c(N)ncnc32)[C@H](O)[C@@H]1OP(=O)(O)O [Myristoyl-CoA]
- activity at 250 µM [5]: 3%
- remaining activity at 100 µM [3]: 93%
- remaining activity at 1000 µM [3]: 83%
- remaining activity at 5000 µM [3]: 52%

Compound: CC(=O)n1ccnc1 [N-acetylimidazole]
- effect on enzyme activity (in words) [1]: caused inactivation
- remaining activity at 1000 µM ([1]; 0.25 h): 101%
- remaining activity at 10000 µM ([1]; 0.25 h): 67%

Compound: O=C1CCC(=O)N1Br [NBS, N-bromosuccinimide]
- inactivation of the enzyme (in words) [1]: complete inactivation
- remaining activity at 500 µM ([1]; 0.25 h): 30%
- remaining activity at 5000 µM ([1]; 0.25 h): 2%
- inhibition at 500 µM ([1]; 0.25 h, read-out: inactivation of the enzyme): 70%

Compound: CCN1C(=O)C=CC1=O [NEM, N-ethylmaleimide]
- remaining activity at 1000 µM ([1]; 0.25 h): 94%
- remaining activity at 10000 µM ([1]; 0.25 h): 52%

Compound: CCC(=O)SCCNC(=O)CCNC(=O)[C@H](O)C(C)(C)COP(=O)(O)OP(=O)(O)OC[C@H]1O[C@@H](n2cnc3c(N)ncnc32)[C@H](O)[C@@H]1OP(=O)(O)O [Propionyl-CoA]
- activity at 250 µM [5]: 9%
- remaining activity at 100 µM [3]: 92%
- remaining activity at 1000 µM [3]: 89%
- remaining activity at 5000 µM [3]: 72%

Compound: O=C1CCC(=O)O1 [Succinic anhydride]
- effect on enzyme activity (in words) [1]: no effect; also recorded: partial inactivation
- remaining activity at 1000 µM ([1]; 0.25 h): 95%
- remaining activity at 10000 µM ([1]; 0.25 h): 79%

Compound: CC(C)(COP(=O)(O)OP(=O)(O)OC[C@H]1O[C@@H](n2cnc3c(N)ncnc32)[C@H](O)[C@@H]1OP(=O)(O)O)[C@@H](O)C(=O)NCCC(=O)NCCSC(=O)CCC(=O)O [Succinyl-CoA]
- activity at 250 µM [5]: 8%
- remaining activity at 100 µM [3]: 92%
- remaining activity at 1000 µM [3]: 79%
- remaining activity at 5000 µM [3]: 56%

Compound: O=S(=O)([O-])[O-].[Zn+2] [ZnSO4]
- Enzyme Activity (%) ([3]; addition 1 mM): 88%
- Enzyme Activity (%) ([3]; addition 10 mM): 25%

Compound: [Zn+2] [Zn^2+]
- effect on yeast enzyme activity (in words) ([3]; concentration not given): most potent inhibitor

Compound: NO [hydroxylamine]
- original enzyme activity recovered ([1]; depc-inactivated acetyl-coa hydrolase, 480 min, 250000 µM): ≈ 55%

Compound: O=C(O)c1cc[c]([Hg][Cl])cc1 [pCMB, p-chloromercuribenzoate]
- Enzyme Activity (%) [1]: 102% and 88%

Compound: NC(=O)C1=CN([C@@H]2O[C@H](COP(=O)(O)OP(=O)(O)OC[C@H]3O[C@@H](n4cnc5c(N)ncnc54)[C@H](O)[C@@H]3O)[C@@H](O)[C@H]2O)C=CC1 [βNADH]
- effect on enzyme (in words) [2]: inhibited
- effect on enzyme activity (in words) [3]: appreciably decreased enzyme activity
- effect on yeast enzyme activity (in words) [3]: inhibited
- remaining activity at 100 µM [3]: 83%
- remaining activity at 1000 µM [3]: 69%
- remaining activity at 10000 µM [3]: 46%

Compound: NC(=O)C1=CN([C@@H]2O[C@H](COP(=O)(O)OP(=O)(O)OC[C@H]3O[C@@H](n4cnc5c(N)ncnc54)[C@H](OP(=O)(O)O)[C@@H]3O)[C@@H](O)[C@H]2O)C=CC1 [βNADPH]
- remaining activity at 100 µM [3]: 99%
- remaining activity at 1000 µM [3]: 98%
- remaining activity at 10000 µM [3]: 96%

Compound: NC(=O)c1ccc[n+]([C@@H]2O[C@H](COP(=O)([O-])OP(=O)(O)OC[C@H]3O[C@@H](n4cnc5c(N)ncnc54)[C@H](O)[C@@H]3O)[C@@H](O)[C@H]2O)c1 [βNAD]
- remaining activity at 100 µM [3]: 100%
- remaining activity at 1000 µM [3]: 98%
- remaining activity at 10000 µM [3]: 95%

- transfer of [3H] acetyl group from [3H] acetyl-CoA to ACTH (1-24), units [6]: 63300 units
Compound: yeast N-alpha-acetyltransferase (enzyme)
